Data reported in patent US20220135540A1, “POLYMORPHS OF AN FXR AGONIST” (Eli Lilly and Company, priority 2020, published 2022).

Tests used:
[1] = Tissue distribution (liver versus plasma and other tissues); type: in vivo; settings: liver relative to plasma, heart and skin, liver vs plasma, kidney, lungs, read-out: concentration in the liver relative to plasma, kidney, lungs, heart, and skin
Source text: Compound I is preferentially distributed to the liver, which, without being bound by theory, would allow the compound to reach its FXR target in the liver with fewer off-target adverse effects. For example, Compound I has an approximately 20-fold higher concentration in the liver than in the plasma, kidney, lungs, heart, and skin. This trait would likely be particularly beneficial for vulnerable populations, such as children, the elderly, and people with comorbidities.

[2] = Solid form stability when stressed at high relative humidity; type: physicochemical; settings: ~94% RH for 10 days
Procedure: Polymorphic Form I of Compound I was obtained by slurrying of Compound I in ethyl acetate or methanol at room temperature, or in a mixture IPA:water 1:1 at ˜58° C. Additionally, Form I was obtained by slow cooling of a solution of Compound I in acetonitrile.

[3] = Moisture sorption analysis (MSA); type: physicochemical; settings: for hygroscopicity (overall, from moisture sorption data): 5% to 95% RH; for weight change (loss) between ~95% RH and ~5% RH: desorption step ~95% to ~5% RH; for weight loss upon equilibration at ~5% RH: moisture sorption; for weight change (gain) between ~5% and ~95% RH: sorption step ~5% to ~95% RH
Procedure: MSA analyses were performed using a VTI SGA-100 Vapor Sorption Analyzer. Sorption and desorption data were collected over a range of 5% to 95% relative humidity (RH) at 10% RH intervals under a nitrogen purge. Samples were not dried prior to analysis. Equilibrium criteria used for analysis were less than 0.0100% weight change in 5 minutes, with a maximum equilibration time of 3 hours if the weight criterion was not met. Data were not corrected for the initial moisture content of the samples. NaCl and PVP were used as calibration standards.

[4] = Slurry interconversion of polymorphic forms; type: physicochemical
Procedure: Slurry interconversion experiments were performed at temperatures ranging from room temperature to ˜81° C. Solvent systems used for the study were nitromethane, acetonitrile, and a THF/heptane 1:2 (v/v) mixture.

Cn1cc(C(=O)O)c2ccc(N3CCC(OCc4c(-c5c(Cl)cccc5Cl)noc4C4CC4)CC3)cc21 [Compound I, 6-(4-((5-cyclopropyl-3-(2,6-dichlorophenyl)isoxazol-4-yl)methoxy)piperidin-1-yl)-1-methyl-1H-indole-3-carboxylic acid]
Kp [1]: ~20

Cn1cc(C(=O)O)c2ccc(N3CCC(OCc4c(-c5c(Cl)cccc5Cl)noc4C4CC4)CC3)cc21 [Form I, 6-(4-((5-cyclopropyl-3-(2,6-dichlorophenyl)isoxazol-4-yl)methoxy)piperidin-1-yl)-1-methyl-1H-indole-3-carboxylic acid]
stability as a solid form under humidity stress [2]: remained stable | hygroscopicity (overall, from moisture sorption data) [3]: low hygroscopicity | weight change (loss) between ~95% RH and ~5% RH [3]: ~0.4 wt % | weight loss upon equilibration at ~5% RH [3]: ~0.1 wt % | weight change (gain) between ~5% and ~95% RH [3]: ~0.4 wt %

Cn1cc(C(=O)O)c2ccc(N3CCC(OCc4c(-c5c(Cl)cccc5Cl)noc4C4CC4)CC3)cc21 [Form II, 6-(4-((5-cyclopropyl-3-(2,6-dichlorophenyl)isoxazol-4-yl)methoxy)piperidin-1-yl)-1-methyl-1H-indole-3-carboxylic acid]
hygroscopicity (overall, from moisture sorption data) [3]: low hygroscopicity | weight change (loss) between ~95% RH and ~5% RH [3]: negligible weight change | weight loss upon equilibration at ~5% RH [3]: ~0.6 wt % | weight change (gain) between ~5% and ~95% RH [3]: negligible weight change | relative stability among polymorphic forms ([4]; ambient temperature and elevated temperature up to ~81° C.): most stable form

Cn1cc(C(=O)O)c2ccc(N3CCC(OCc4c(-c5c(Cl)cccc5Cl)noc4C4CC4)CC3)cc21 [I, II, III, V]
XRPD Result of slurry interconversion ([4]; ACN, ~66-69° C., 1 day, ~5 mg each): Form II

Cn1cc(C(=O)O)c2ccc(N3CCC(OCc4c(-c5c(Cl)cccc5Cl)noc4C4CC4)CC3)cc21 [I, II, VI]
XRPD Result of slurry interconversion ([4]; THF/heptane 1:2, ~61° C., 1 day, ~15 mg each): Form II | XRPD Result of slurry interconversion ([4]; THF:heptane 1:2, RT, 1 day, ~15 mg each): Form II

Cn1cc(C(=O)O)c2ccc(N3CCC(OCc4c(-c5c(Cl)cccc5Cl)noc4C4CC4)CC3)cc21 [I, II, III, IV, V, VI, VII]
XRPD Result of slurry interconversion ([4]; ACN, RT, 1 day, ~5 mg each): Form II | XRPD Result of slurry interconversion ([4]; Nitromethane, RT, 3 days, ~5 mg each): Form II | XRPD Result of slurry interconversion ([4]; Nitromethane, ~78-81° C., 3 days, ~5 mg each): Form II
